# In patent US9771394B2, “Antimicrobial polymyxins for treatment of bacterial infections” (priority 2014, dated 2017):
# Where two headings read alike, the source gives them in different places. Starred links: 1 amine or outer side, 2 acyl side, 3 side chain; linkers in the order of their positions; H or OH if unused. Positions of bridges follow the written chain, without caps; N, C: chain ends. Non-standard residues stand in square brackets, D forms with d. Residues, ends and D or L forms follow the SMILES beside them. ξ: configuration not given here. *: point of attachment. X8 = NCC[C@H](OC(=O)Cc1ccc(-c2ccccc2)cc1)C(=O)*; X6 = NCC[C@H](OC(=O)c1ccc(-c2ccccc2)cc1)C(=O)*; X9 = CCC(C)(C)C(=O)OCCC(=O)O[C@@H](CCN)C(=O)*; X3 = CCCCCCCC(=O)O[C@@H](CCN)C(=O)*; X11 = CCCCOP(=O)(CC(=O)*)OCCCC; Thr(3ξ) = CC(O)[C@H](N)C(=O)O; X10 = O=C(C1CNCCN1[*:1])[*:2]; X7 = CC(=O)O[C@@H](CCN)C(=O)*; X1 = CCC(C)(C)C(=O)OCCC(=O)*; X2 = CCCC(C)OC(=O)CCC(=O)*; Dab = NCC[C@H](N)C(=O)O; X4 = CCCCOC(=O)CCC(=O)*; Dap = NC[C@H](N)C(=O)O
# What was measured:
# [1] = system: P. aeruginosa PAE 1001; type: cell-based, Pseudomonas aeruginosa
# Description: (§1) In vitro activity of compounds provided herein may be assessed by standard testing procedures such as the determination of minimum inhibitory concentration (MIC, μg/mL) just as described in “Methods for Dilution Antimicrobial Susceptibility Tests for Bacteria That Grow Aerobically; Approved Standard—Ninth Edition,” published in 2012 by the Clinical and Laboratory Standards Institute, Wayne, Pa., USA. Thus, bacterial colonies grown overnight on Mueller-Hinton Agar plate were selected and suspended in sterile saline to a turbidity of about 80% transmittance, as measured by a spectrophotometer. The suspension was diluted 200-fold with cation-adjusted Mueller-Hinton broth to serve as the inoculum for testing. Two-fold serial dilutions of the test compound were performed in 96-well master plate to arrive at desired concentration. Samples of 10 microliter from each well of the master plate were transferred into respective wells of 96-well assay plate. Bacterial inoculum (90 microliter) was introduced into each well of the assay plate. The assay plate was placed in the incubator at 35° C. for about 24 h (without agitation) followed by the MIC determination. MIC values were determined based on the presence or absence of bacterial growth in wells at the given test agent concentration. MIC value is defined as the lowest concentration of test antibiotic that prevents visible bacterial growth.
# (§2) The useful activity of exemplary compounds described herein against Gram-negative pathogens Pseudomonas aeruginosa, Escherichia coli, or Klebsiela pneumoniae is illustrated by the MIC data of Table 1.
# [2] = system: E. coli WECO 1003; type: cell-based, Escherichia coli
# Description: as §1, §2
# [3] = system: K. pneumoniae KPN1004; type: cell-based, Klebsiela pneumoniae
# Description: as §1, §2
# [4] = system: P. aeruginosa; assay: P. aeruginosa thigh infection mouse model, IV dosing; type: in vivo, Pseudomonas aeruginosa; conditions: CFU change at 12 h vs no treatment control, PMB values in parenthesis side-by-side
# Description: A lower ED50 value indicates a higher therapeutic efficacy of the drug. The number of surviving animals (from the total number of infected animals used at a given drug dose) is another indicator of efficacy. […] In thigh and lung infection models, a greater reduction in the bacterial colony-forming units (CFU) indicates stronger beneficial therapeutic effect (more bacterial eradication), while a lower CFU reduction or an increase in CFU value indicates a lower effect (less bacterial eradication), or an absence of the therapeutic effect.
# [5] = Stability in human plasma at 37° C.; type: in vitro ADME
# Experimental: Exemplary compounds of this invention were tested for stability in human plasma at 37° C., replicating in vivo conditions of mammalian blood. Plasma stability for select compounds was performed as follows. Human plasma (K2 EDTA) was obtained from Bioreclamation. The assay was carried out in 96-well microtiter plates. Test compounds were incubated in duplicate at 37° C. in the presence of plasma. Reaction mixtures (25 μL) contained a final concentration of 25 μM test compound. The extent of metabolism was calculated as the disappearance of the test compound over time. Eucatropine was included as a positive control to verify assay performance. At each given time point, 100 μL of quench solution (100% MeCN with 0.1% HCOOH) with internal standard was transferred to each well. Plates were sealed, vortexed, and centrifuged at 4° C. for 15 minutes at 4,000 rpm. The supernatant was transferred to fresh plates for LC/MS/MS analysis. The formation of a potential metabolite was monitored in all samples. The samples were analyzed on LC/MS/MS using an AB Sciex API 4000 instrument, coupled to a Shimadzu LC-20AD LC Pump system. Analytical samples were separated using a Waters Atlantis T3 dC18 reverse phase HPLC column (20 mm×2.1 mm) at […] a flow rate of 0.5 mL/min, eluting with 0.1% aq. HCOOH and 0.1% HCOOH in MeCN (using gradient from 2% to 98% of the latter). Remaining test compounds were quantified via MS/MS ion current.
# [6] = system: human HK-2 cell; assay: Human HK-2 cell cytotoxicity assay (in vitro nephrotoxicity); type: cell-based
# Description: Nephrotoxicity of polymyxins could be determined in vitro using human renal […] (HK-2) cytotoxicity assay, analogously to that described, for example, by Keirstead et al. in Toxicol. Sci., 2014, vol. 137, pp. 278-291. In vivo, nephrotoxicity could be determined using urine biomarker assays, such as clinically validated neutrophil gelatinase-associated lipocalin (NGAL) assay described, for example by Devarajan in Scand. J. Clin. Lab. Invest. Suppl., 2008, vol. […], pp. 89-94.
# [7] = 35° C., about 24 h, cation-adjusted Mueller-Hinton broth
SMILES,"Antibacterial activity (MIC) P. aeruginosa PAE 1001 ([1]; PAE 1001, 24 h) [µg/mL]","Antibacterial activity (MIC) E. coli WECO 1003 ([2]; WECO 1003, 24 h) [µg/mL]","Antibacterial activity (MIC) K. pneumoniae KPN1004 ([3]; KPN1004, 24 h) [µg/mL]",other results
CC(C)C[C@@H]1NC(=O)[C@@H](Cc2ccccc2)NC(=O)[C@H](CCN)NC(=O)[C@@H](NC(=O)[C@H](CCN)NC(=O)[C@@H](NC(=O)[C@H](CCN)OC(=O)Cc2ccc(-c3ccccc3)cc2)C(C)O)CCNC(=O)[C@H](C(C)O)NC(=O)[C@H](CCN)NC(=O)[C@H](CCN)NC1=O (stereo partly drawn) [Example 2] (X8-[Thr(3ξ)][Dab][Dab][Dab][dF]L[Dab][Dab][Thr(3ξ)]; lactam 3-C),4,8,2,–
CC(C)C[C@@H]1NC(=O)[C@@H](Cc2ccccc2)NC(=O)[C@H](CCN)NC(=O)[C@@H](NC(=O)[C@H](CCN)NC(=O)[C@@H](NC(=O)[C@H](CCN)OC(=O)c2ccc(-c3ccccc3)cc2)C(C)O)CCNC(=O)[C@H](C(C)O)NC(=O)[C@H](CCN)NC(=O)[C@H](CCN)NC1=O (stereo partly drawn) [Example 3] (X6-[Thr(3ξ)][Dab][Dab][Dab][dF]L[Dab][Dab][Thr(3ξ)]; lactam 3-C),4,4,4,–
CCCCOC(=O)CCC(=O)N[C@@H](CCN)C(=O)N[C@H](C(=O)N[C@@H](CCN)C(=O)N[C@H]1CCNC(=O)[C@H](C(C)O)NC(=O)[C@H](CCN)NC(=O)[C@H](CCN)NC(=O)[C@H](CC(C)C)NC(=O)[C@@H](Cc2ccccc2)NC(=O)[C@H](CCN)NC1=O)C(C)O (stereo partly drawn) [Example 7] (X4-[Dab][Thr(3ξ)][Dab][Dab][Dab][dF]L[Dab][Dab][Thr(3ξ)]; lactam 4-C),4,4,2,"P. aeruginosa Thigh model, IV dosing ΔlogCFU at 5 mg/kg [4]: −0.50; remaining at 1 h, 25 μM ([5]; human, plasma): 49%; remaining at 4 h, 25 μM ([5]; human, plasma): 15%"
CCCCOP(=O)(CC(=O)N[C@@H](CCN)C(=O)N[C@H](C(=O)N[C@@H](CCN)C(=O)N[C@H]1CCNC(=O)[C@H](C(C)O)NC(=O)[C@H](CCN)NC(=O)[C@H](CCN)NC(=O)[C@H](CC(C)C)NC(=O)[C@@H](Cc2ccccc2)NC(=O)[C@H](CCN)NC1=O)C(C)O)OCCCC (stereo partly drawn) [Example 30] (X11-[Dab][Thr(3ξ)][Dab][Dab][Dab][dF]L[Dab][Dab][Thr(3ξ)]; lactam 4-C),–,–,–,"Antibacterial activity (MIC) P. aeruginosa PAE 1001 [1, 7]: 2 µg/mL; Antibacterial activity (MIC) E. coli WECO 1003 [2, 7]: 2 µg/mL; Antibacterial activity (MIC) K. pneumoniae KPN1004 [3, 7]: 4 µg/mL"
CCCC(C)OC(=O)CCC(=O)N1CCNCC1C(=O)N[C@H](C(=O)N[C@@H](CCN)C(=O)N[C@H]1CCNC(=O)[C@H](C(C)O)NC(=O)[C@H](CCN)NC(=O)[C@H](CCN)NC(=O)[C@H](CC(C)C)NC(=O)[C@@H](Cc2ccccc2)NC(=O)[C@H](CCN)NC1=O)C(C)O (stereo partly drawn) [Example 31] (X2-[X10][Thr(3ξ)][Dab][Dab][Dab][dF]L[Dab][Dab][Thr(3ξ)]; lactam 4-C),8,8,8,–
CCC(C)(C)C(=O)OCCC(=O)O[C@@H](CCN)C(=O)N[C@H](C(=O)N[C@@H](CCN)C(=O)N[C@H]1CCNC(=O)[C@H](C(C)O)NC(=O)[C@H](CCN)NC(=O)[C@H](CCN)NC(=O)[C@H](CC(C)C)NC(=O)[C@@H](Cc2ccccc2)NC(=O)[C@H](CCN)NC1=O)C(C)O (stereo partly drawn) [Example 34] (X9-[Thr(3ξ)][Dab][Dab][Dab][dF]L[Dab][Dab][Thr(3ξ)]; lactam 3-C),4,4,4,–
CCC(C)(C)C(=O)OCCC(=O)N[C@@H](CN)C(=O)N[C@H](C(=O)N[C@@H](CCN)C(=O)N[C@H]1CCNC(=O)[C@H](C(C)O)NC(=O)[C@H](CCN)NC(=O)[C@H](CCN)NC(=O)[C@H](CC(C)C)NC(=O)[C@@H](Cc2ccccc2)NC(=O)[C@H](CCN)NC1=O)C(C)O (stereo partly drawn) [Example 35] (X1-[Dap][Thr(3ξ)][Dab][Dab][Dab][dF]L[Dab][Dab][Thr(3ξ)]; lactam 4-C),4,1,4,–
CC(=O)O[C@@H](CCN)C(=O)N[C@H](C(=O)N[C@@H](CCN)C(=O)N[C@H]1CCNC(=O)[C@H](C(C)O)NC(=O)[C@H](CCN)NC(=O)[C@H](CCN)NC(=O)[C@H](CC(C)C)NC(=O)[C@@H](Cc2ccccc2)NC(=O)[C@H](CCN)NC1=O)C(C)O (stereo partly drawn) [Example 43] (X7-[Thr(3ξ)][Dab][Dab][Dab][dF]L[Dab][Dab][Thr(3ξ)]; lactam 3-C),8,8,>32,–
"CCCCCCCC(=O)O[C@@H](CCN)C(=O)N[C@H](C(=O)N[C@@H](CCN)C(=O)N[C@H]1CCNC(=O)[C@H](C(C)O)NC(=O)[C@H](CCN)NC(=O)[C@H](CCN)NC(=O)[C@H](CC(C)C)NC(=O)[C@@H](Cc2ccccc2)NC(=O)[C@H](CCN)NC1=O)C(C)O (stereo partly drawn) [Reference Example 1, reference compound] (X3-[Thr(3ξ)][Dab][Dab][Dab][dF]L[Dab][Dab][Thr(3ξ)]; lactam 3-C)",8,4,2,"P. aeruginosa Thigh model, IV dosing ΔlogCFU at 5 mg/kg [4]: −1.92; formation of the expected metabolite (compound of Example 44) by MS analysis [5]: no formation; metabolism in human plasma [5]: no discernable metabolism; remaining at 4 h, 25 μM ([5]; human, plasma): 100%"
"CC(C)C[C@@H]1NC(=O)[C@@H](Cc2ccccc2)NC(=O)[C@H](CCN)NC(=O)[C@@H](NC(=O)[C@H](CCN)NC(=O)[C@@H](N)[C@@H](C)O)CCNC(=O)[C@H]([C@@H](C)O)NC(=O)[C@H](CCN)NC(=O)[C@H](CCN)NC1=O [Reference Example 40, Polymyxin B nonapeptide, reference compound] (H-T[Dab][Dab][Dab][dF]L[Dab][Dab]T; lactam 3-C)",>32,>32,>32,HK-2 cytotoxicity class [6]: Class 4; IC50 [6]: > 200 µM
